Experimental data: patent US4895937A, “5-ioso-2-pyrimidinone nucleoside” (The Research Foundation of State University of New York, priority 1988, dated 1990)

Tests used:
[1] = test system: HSV-1(Kos); assay: Virus titer in HSV-1 infected HeLa cells, 24 hours post infection (Example 5); assay type: cell-based, herpes simplex type 1; conditions: control 1.5 × 10^7
Experimental: (§1) In accordance with the present invention, 1-(2-Deoxy-β-D-ribofuranosyl)-5-(methylmercapto)-2-pyrimidinone is prepared essentially in accordance with the procedure set forth in "Snythesis and Antiviral Activity of 1-(2-Deoxy-β-D-ribofuranosyl)-5-(methylmercapto)-2-pyrimidinone" by Schroeder and Bardos and Cheng, Volume 24, page 109, January 1981. HeLa cells were infected in 1640 RPMI medium with herpes simplex type 1 (HSV-1) and independently with herpes simplex type 2 (HSV-2) virus at a multiplicity of 5 to 10 plaque forming units per cell. The composition of 1640 RPMI medium is reported in "Biological Activity of 5 Ethyl, 5 Propyl, and 5 Vinyl 2'-Deoxyuridine" by Cheng et al published in Antimicrobial Agents and Chemotherapy, Volume 10, beginning at page 119 (1976). 1640 RPMI medium is commercially available from Gibco Company, Grand Island, N.Y. After 1 hour, virus absorption, the drugs were added. Resulting cultures were analyzed for virus titer at 24 hours post infection a described in the procedure set forth in "Biological Activity of 5-Ethyl, 5-Propyl and 5-Vinyl 2'-uridine" by Cheng et al. The results are set forth in Table 2. The numbers set forth in Table 2 show the number of plaque forming units in the control which contained no methylmercapto compound and the number of units at concentrations of 100, 200 and 400 micromoles of the methylmercapto compound. The results clearly indicate substantial decrease in the number of plaque forming units in the presence of 1-(2-Deoxy-β-D-ribofuranosyl)-5-(methylmercapto)-2-pyrimidinone.

[2] = test system: HSV-2 (333); assay: Virus titer in HSV-2 infected HeLa cells, 24 hours post infection (Example 5); assay type: cell-based, herpes simplex type 2; conditions: control 1.2 × 10^7
Experimental: as §1

[3] = test system: thymidine kinase extracted from human cells; assay: Binding affinity with thymidine kinase extracted from human cells (Example 6)
Experimental: (§2) The methylmercapto composition, as described in Example 5. was tested for binding affinity with thymidine kinase from various sources. Viruses which induce the production of thymidine kinase, induce thymidine kinase specific to the virus. […] It is believed that the compound of the invention, in order to become active in inhibiting the replication of the virus, must become phosphorylated. For such phosphorylation to occur, the thymidine kinase must first bind to the compound. Since binding with thymidine kinase produced by the virus is much more efficient and effective than binding with thymidine kinase from other sources, phosphorylation of the compound occurs more rapidly in the presence of active viruses producing thymidine kinase. The compound, activated by phosphorylation, then is able to interfere with replication of the virus.

[4] = target: thymidine kinase extracted from cells infected with herpes simplex 1 virus (Human alphaherpesvirus 1 strain 17, UniProt P0DTH5); assay: Binding affinity with thymidine kinase extracted from cells infected with herpes simplex 1 virus (Example 6); conditions: herpes simplex 1 virus infected cells
thymidine kinase extracted from cells infected with herpes simplex 1 virus, sequence (P0DTH5 whole entry): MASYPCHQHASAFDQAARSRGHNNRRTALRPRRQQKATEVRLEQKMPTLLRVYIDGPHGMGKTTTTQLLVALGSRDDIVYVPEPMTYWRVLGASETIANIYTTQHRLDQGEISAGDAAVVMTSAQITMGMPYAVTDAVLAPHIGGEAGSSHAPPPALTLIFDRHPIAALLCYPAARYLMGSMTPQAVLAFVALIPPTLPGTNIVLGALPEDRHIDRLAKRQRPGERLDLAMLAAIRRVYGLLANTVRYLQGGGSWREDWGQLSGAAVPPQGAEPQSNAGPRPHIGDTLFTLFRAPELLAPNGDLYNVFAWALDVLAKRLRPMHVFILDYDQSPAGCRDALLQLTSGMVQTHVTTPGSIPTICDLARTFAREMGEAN
Experimental: as §2

[5] = target: thymidine kinase extracted from Varicella zoster virus infected cells (Human herpesvirus 3 strain Dumas, UniProt P09250); assay: Binding affinity with thymidine kinase from Varicella zoster virus infected cells (Example 6)
thymidine kinase extracted from Varicella zoster virus infected cells, sequence (P09250 whole entry, looked up): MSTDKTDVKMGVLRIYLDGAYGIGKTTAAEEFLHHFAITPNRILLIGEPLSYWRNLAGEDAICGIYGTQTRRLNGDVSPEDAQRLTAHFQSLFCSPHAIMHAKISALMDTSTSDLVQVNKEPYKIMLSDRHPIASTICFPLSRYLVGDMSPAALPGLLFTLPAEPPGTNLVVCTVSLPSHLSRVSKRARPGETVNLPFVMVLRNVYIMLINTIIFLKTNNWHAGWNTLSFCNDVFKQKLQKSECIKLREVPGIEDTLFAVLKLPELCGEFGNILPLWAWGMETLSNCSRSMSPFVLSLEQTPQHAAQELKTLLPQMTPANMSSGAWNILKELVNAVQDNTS
Experimental: as §2

[6] = test system: HSV-1; assay: Viral inhibition, HSV-1 (Example 7, method of Example 5); assay type: cell-based, herpes simplex type 1; conditions: Human alphaherpesvirus 1
Experimental: as §1
(§3) The above described methyl compound was tested for viral inhibition substantially in accordance with the method of Example 5 except that the concentrations were 50 and 100 micromolar.

[7] = test system: HSV-2; assay: Viral inhibition, HSV-2 (Example 7, method of Example 5); assay type: cell-based, herpes simplex type 2; conditions: Human alphaherpesvirus 2
Experimental: as §1, §3

[8] = 50 micromolar, vs untreated control

SMILES: CSc1cnc(=O)n([C@H]2C[C@H](O)[C@@H](CO)O2)c1 [methylmercapto compound, 1-(2-Deoxy-β-D-ribofuranosyl)-5-(methylmercapto)-2-pyrimidinone]
- plaque-forming units/mL, HSV-1(Kos) ([1]; 100 μM): 6.4 × 10^7 plaque-forming units/mL
- plaque-forming units/mL, HSV-1(Kos) ([1]; 200 μM): 1.7 × 10^6 plaque-forming units/mL
- plaque-forming units/mL, HSV-1(Kos) ([1]; 400 μM): 3.4 × 10^5 plaque-forming units/mL
- plaque-forming units/mL, HSV-2 (333) ([2]; 100 μM): 1.3 × 10^7 plaque-forming units/mL
- plaque-forming units/mL, HSV-2 (333) ([2]; 200 μM): 3.1 × 10^6 plaque-forming units/mL
- plaque-forming units/mL, HSV-2 (333) ([2]; 400 μM): 3.2 × 10^5 plaque-forming units/mL
- binding affinity with thymidine kinase [3]: little binding affinity
- binding affinity with thymidine kinase [4]: great binding affinity
- binding affinity with thymidine kinase [5]: great binding affinity
- inhibition at 50 µM [6, 8]: 41.1%
- inhibition at 100 µM ([6]; 100 micromolar): 83.8%
- inhibition at 50 µM [7, 8]: 57.2%
- inhibition at 100 µM ([7]; 100 micromolar): 79.3%
